# Source: patent US20180169100A1, “Cancer Stem Cell Targeting Compounds” (Godavari Biorefineries Limited, priority 2014, published 2018)
# Columns and labels:
# Format in all cases: cell-based
# [1] = system: CD44 population of DU145 cells; assay: Flow cytometry study, CD44/CD24 staining; details: DU145 cells exposed to IC25 drug conc. for 48 hrs; untreated 70.18% cells CD44
# [2] = system: CD44 population of PC3 cells; assay: Flow cytometry study, CD44/CD24 staining; details: PC3 cells exposed to IC25 drug conc. for 48 hrs; untreated 85.61% cells CD44
# Procedure: For Flow cytometry assay the PC3 cancer cells (0.35×106) were cultured in Dulbecco's Modified Eagle's medium (DMEM) with 10% Fetal Bovine Serum (F.B.S) in 60 mm tissue culture plates for 24 hrs in 5% CO2 at 37° C. Cells were then exposed to IC25 drug conc. of Cisplatin in duplicates. Similarly other sets of cells were treated with IC25 drug conc. of Ethyl-5,6-dimethyl-4-(piperidin-1-yl)thieno[2,3-d]pyrimidine for 48 hrs. and incubated in 5% CO2 at 37° C. for 48 hrs. Appropriate controls that is growth control (cells+DMEM medium) and solvent control (cells+control DMEM medium+DMSO) and medium control (DMEM) were also kept along with the experimental sets. After 48 hrs the cells were observed under the microscope, trypsinised, washed with Dulbecco's phosphate-buffered saline (D.P.B.S.) 50 μl of cells were taken for each set and 5 μl of each of the CD44-PE labeled and CD24-FITC labeled antibodies were added. The sets were incubated for 45 mins at 4° C. for proper binding of antibodies. After incubation the cells were washed with 200 μl of D.P.B.S by centrifugation. The supernatant was discarded and the cells were finally suspended in 300 μl of FACS buffer (4% Fetal Bovine Serum in D.P.B.S). Samples were kept at 4° C. in dark till they were acquired on FACS. Acquisition was done on BD-FACS Accuri C6.
# [3] = system: primary spheres of MDA MB231; assay: 3D Primary Sphere Assay; details: GC 92(±7), GCD 83(±6)
# Procedure: (§1) The ability of cancer stem cells to form spheres in a serum free media was determined by 3D Primary Sphere Assay, where the spheres were in a suspended form. Through this assay the potency of the compound Ethyl-5,6-dimethyl-4-(piperidin-1-yl)thieno[2,3-d]pyrimidine to kill cancer stem cells in comparison to the standard chemotherapeutic drug such as Cisplatin was evaluated as follows. The Cells were grown in three dimensions on a plastic substrate, harvested in suspension in serum-free media, then the cells in the sample were trypsinised and a single cell suspension was formed by passing through a cell strainer. The cells were diluted according to the predetermined plating efficiency for the cell line being studied by suspending the cells in stem cell culture medium. 100 uL of this suspension was added into each well of a 96 well suspension plate, and the plate was incubated at 37 degrees Celsius in 5% CO2 atmosphere for 24 hours, then 2 uL of appropriate concentrations of the drugs were added into each respective well along with 100 uL of stem cell culture medium, and the plates incubated at 37 degrees Celsius under 5% CO2 atmosphere for 72 hours. 2.5 uL of the appropriate drug concentration was added to each respective well along with 50 uL of stem cell culture medium and the plates were incubated at 37 degrees Celsius under 5% CO2 atmosphere for 72 hours. 3 uL of the appropriate concentration of the compound as mentioned below was added to each respective well along with 50 uL of stem cell culture medium, incubated at 37 degrees Celsius under 5% CO2 atmosphere for 72 hours, the spheres formed were observed under a microscope, counted and scored by size. Results of the in vitro 3D sphere forming stem cell assay were set forth in a tabular manner. […] GC refers to a growth control performed in the absence of drug or solvent (DMSO). GCD refers to a growth control performed in the absence of drug, but in the presence of DMSO.
# primary spheres of PC3 = assay: 3D Primary Sphere Assay; details: GC 120(±10), GCD 103(±9)
# Procedure: as §1
# primary spheres of DU145 = assay: 3D Primary Sphere Assay; details: GC 49(±5), GCD 41(±4)
# Procedure: as §1
# Bu25tk = assay: In vitro colorimetric cell death assay (MTT); details: Bu25tk cervical cancer cell line, 48 hours with compound, read-out: IC 50 Value
# Procedure: (§2) For assessing cell viability in vitro colorimetric cell death assay was carried out where the cells were grown in two-dimensional surface as follows. Cancer cells with plating efficiency as mentioned herein below for respective cell lines were plated in a 96 well plate. The plate was incubated for 24 hours in a 5% CO2 atmosphere at 37 degrees Celsius, a range of concentrations from 10^−3 M to 10^−6 M of the compound Ethyl-5,6-dimethyl-4-(piperidin-1-yl)thieno[2,3-d]pyrimidine was added to the wells, the plates were incubated further for 48 hours in a 5% CO2 atmosphere, the plate was centrifuged twice at 3000 rpm for 3 minutes, the supernatant fluid was discarded, 100 uL of 0.5 mg/mL 3-(4,5-Dimethylthiazol-2-yl)-2,5-Diphenyltetrazolium Bromide (MTT) solution was added and the plate was incubated for 4 hours in a 5% CO2 atmosphere at 37 degrees Celsius. The plate was then centrifuged twice at 3000 rpm for 3 minutes, supernatant was aspirated very carefully, 200 uL Dimethyl sulfoxide (DMSO) was added to each well to solubilize MTT crystals and mixed well by shaking the plate, the plate was incubated for 10 minutes in a 5% CO2 atmosphere at 37 degrees Celsius, the plate was placed on the shaker of an ELISA plate reader and the absorbance at 570 nm was measured, the percentage of viable cells remaining was calculated by first subtracting the background absorbance then comparing to the absorbance of a non-drug-treated cell sample, and the results were plotted on a graph to determine the IC50 for the compound Ethyl-5,6-dimethyl-4-(piperidin-1-yl)thieno[2,3-d]pyrimidine which was calculated by regression analysis.
# LNCaP = assay: In vitro colorimetric cell death assay (MTT); details: LNCaP prostate cancer cell line, 48 hours with compound, read-out: IC 50 Value
# Procedure: as §2
# PC3 = assay: In vitro colorimetric cell death assay (MTT); details: PC3 prostate cancer cell line, 48 hours with compound, read-out: IC 50 Value
# Procedure: as §2
# Hep3B = assay: In vitro colorimetric cell death assay (MTT); details: Hep3B hepatic cancer cell line, 48 hours with compound, read-out: IC 50 Value
# Procedure: as §2
# MCF-7 = assay: In vitro colorimetric cell death assay (MTT); details: MCF-7 breast cancer cell line, 48 hours with compound, read-out: IC 50 Value
# Procedure: as §2
# Colo320 = assay: In vitro colorimetric cell death assay (MTT); details: Colo320 colon cancer cell line, 48 hours with compound, read-out: IC 50 Value
# Procedure: as §2
# MDAMB231 = assay: In vitro colorimetric cell death assay (MTT); details: MDAMB231 breast cancer cell line, 48 hours with compound, read-out: IC 50 Value
# Procedure: as §2
# SiHa = assay: In vitro colorimetric cell death assay (MTT); details: SiHa cervical cancer cell line, 48 hours with compound, read-out: IC 50 Value
# Procedure: as §2
# DU145 = assay: In vitro colorimetric cell death assay (MTT); details: DU145 prostate cancer cell line, 48 hours with compound, read-out: IC 50 Value
# Procedure: as §2
# T47D = assay: In vitro colorimetric cell death assay (MTT); details: T47D breast cancer cell line, 48 hours with compound, read-out: IC 50 Value
# Procedure: as §2
# L929 = assay: In vitro colorimetric cell death assay (MTT); details: L929 fibroblast cancer cell line, 48 hours with compound, read-out: IC 50 Value
# Procedure: as §2
# HeLa = assay: In vitro colorimetric cell death assay (MTT); details: HeLa cervical cancer cell line, 48 hours with compound, read-out: IC 50 Value
# Procedure: as §2
smiles,measurement,setting,value
N.N.[Cl][Pt][Cl] [Cisplatin],effect on CD44 population,[1],did not have much effect
same,effect on CD44 population,[2],did not have much effect
same,total number of spheres formed,"[3]; MDA MB231, final conc. 1.25 μM",76(±8)
same,total number of spheres formed,"[3]; MDA MB231, final conc. 12.5 μM",52(±6)
same,total number of spheres formed,"[3]; MDA MB231, final conc. 125 μM",39(±3)
same,total number of spheres formed,[3]; MDA MB231,25(±5)
same,total number of spheres formed,"primary spheres of PC3; PC3, final conc. 1.25 μM",109(±6)
same,total number of spheres formed,"primary spheres of PC3; PC3, final conc. 12.5 μM",107(±9)
same,total number of spheres formed,"primary spheres of PC3; PC3, final conc. 125 μM",88(±6)
same,total number of spheres formed,primary spheres of PC3; PC3,74(±7)
same,total number of spheres formed,"primary spheres of DU145; DU145, final conc. 1.25 μM",48(±5)
same,total number of spheres formed,"primary spheres of DU145; DU145, final conc. 12.5 μM",41(±5)
same,total number of spheres formed,"primary spheres of DU145; DU145, final conc. 125 μM",23(±4)
same,total number of spheres formed,"primary spheres of DU145; DU145, final conc. 1250 μM",12(±3)
same,IC50,Bu25tk,59.3 µM
same,IC50,LNCaP,52.5 µM
same,IC50,PC3,11.2 µM
same,IC50,Hep3B,37.6 µM
same,IC50,MCF-7,29.2 µM
same,IC50,Colo320,38.3 µM
same,IC50,MDAMB231,48.4 µM
same,IC50,SiHa,35.5 µM
same,IC50,DU145,31.6 µM
same,IC50,T47D,58.9 µM
same,IC50,L929,29 µM
same,IC50,HeLa,33.9 µM
